Tests used:
[1] = tested on: abdominal aortic aneurysm; assay: Regression of established abdominal aortic aneurysm, administration from Day 7 (Example 3); type: in vivo, rat
Procedure: SD-male rats of 4 weeks old (70 to 90 G) were used. The rats were subjected to the above-described abdominal aortic aneurysm induction treatment. On Day 7, the abdomen of the rat was opened to confirm the occurrence of an abdominal aortic aneurysm, the vessel diameter was measured, and then the abdomen was closed. Subsequently, a control group was fed normal feed and water, while a tricaprin administration group was fed tricaprin in an amount of 1,145 MG/KG/day in addition to the normal feed.
Seven days after the abdominal closure (Day 14 after the abdominal aortic aneurysm induction treatment), the abdomen was opened again, and the blood vessel diameter was measured. Some rats of the control group were not subjected to laparotomy on Day 14 and continued to be fed normal feed and water. The amount of the neutral fats in the blood vessel, the amount of lipids in the blood, the blood glucose level, and the body weight were measured from the day when the abdominal aortic aneurysm induction treatment was performed.
FIGS. 3(A), 3(B), and 3(C) show the control group (depicted as “CONTROL”), and FIGS. 3(D), 3(E), and 3(F) show the tricaprin administration group (depicted as “C10-TG”).
Photographs under “DAY 0” are photographs taken when the abdominal aortic aneurysm induction treatment was performed (FIG. 3(A) and FIG. 3(D)). […]

[2] = tested on: abdominal aortic aneurysm; assay: Abdominal aortic aneurysm induction model, preventive forced administration (Examples 1 and 2); type: in vivo, rat; conditions: for Rupture rate of abdominal aortic aneurysm: among rats with observed aneurysm, control group 28.6; for Rupture confirmed (abdominal aortic aneurysm) / Rupture not confirmed (abdominal aortic aneurysm): number of rats among rats with observed aneurysm; for Survival rate: Example 2, FIG. 1; for Diameter of the aorta in the abdominal aortic aneurysm induction part: Example 2, FIG. 2, after completion of the test, control group about 4 MM
Procedure: SD-male rats of 4 weeks old (70 to 90 G) were used. Eighteen rats and eight rats were prepared as a control group and a medium chain fatty acid administration group, respectively.
Upon arrival, all rats were preliminarily fed normal feed without additional supplements for one week. Then, the medium chain fatty acid administration group was fed normal feed and forcibly administered with high-content neutral fats (decanoic acid occupied 98% of constituent fatty acids) in an amount of 1,145 MG/KG body-weight/day. The control group was fed normal feed and forcibly administered with water in an amount of 1,145 MG/KG body-weight/day.
In this test, the medium chain fatty acid was fed in the form of tricaprin. Tricaprin is a substance in which decanoic acid (C10), a linear saturated fatty acid having 10 carbon atoms, is bonded to glycerol. Thus, the high-content neutral fats are medium chain fatty acids of the present invention.
From the second week after the arrival, all rats were fed high-fat feed. Then, the medium chain fatty acid administration group was forcibly administered with the high-content neutral fats in an amount of 1,145 MG/KG body-weight/day in addition to the high-fat feed. Furthermore, the control group was forcibly administered with water in an amount of 1,145 MG/KG body-weight/day in addition to the high-fat feed.
Three weeks after the arrival, an abdominal aortic aneurysm induction treatment was performed. In the abdominal aortic aneurysm induction treatment, a catheter is inserted in the rat abdominal aorta and the inserted catheter is ligated with the abdominal aorta. The treatment was performed according to the method disclosed in PTL 3.
After that, for the next four weeks, the control group had been fed the high-fat feed and forcibly administered with water in an amount of 1,145 MG/KG body-weight/day. Furthermore, the medium chain fatty acid administration group had been fed the high-fat feed and forcibly administered with the high-content neutral fats. Then, four weeks after the abdominal aortic aneurysm induction treatment, the rats were dissected.
Note that the abdominal aortic aneurysm was determined to have occurred if the blood vessel at the site where the abdominal aortic aneurysm induction treatment was performed dilated to twice or more its original thickness.
Next, test results obtained by using tricaprin (an ester of three decanoic acids and glycerol) and tricaprylin (an ester of three octanoic acids of C8 and glycerol) as the medium chain fatty acid is shown. The animal model preparation method is the same as that in Example 1. A group in which tricaprin (C10) was given is referred to as a tricaprin administration group and a group in which tricaprylin (C8) was given is referred to as a tricaprylin administration group.
Twenty-three, eleven, and eighteen model animals were prepared as a control group, the tricaprylin administration group, and the tricaprin administration group, respectively.

[3] = Example 2, number of rats (tricaprylin 11, tricaprin 18 animals)
[4] = Example 2, number of rats (tricaprylin 11, tricaprin 18 animals), dilated to twice or more original thickness

Structure (SMILES)	Maximum aneurysm diameter ([1]; Day 14, 1,145 MG/KG/day from Day 7, 2.79 MM on Day 7 before administration, control 2.81 to 3.59 MM) [MM]	Weight gain rate versus control group ([1]; Example 3, measured from the day of induction treatment)	Frequency of occurrence of abdominal aortic aneurysm ([2]; Example 1, 1,145 MG/KG body-weight/day, control group 38.9) [%]	Rupture rate of abdominal aortic aneurysm ([2]; Example 1) [%]	Rupture confirmed (abdominal aortic aneurysm) ([2]; Example 1)	Rupture not confirmed (abdominal aortic aneurysm) ([2]; Example 1)	Occurrence not confirmed (abdominal aortic aneurysm) ([2]; Example 1, number of rats of 8, 1,145 MG/KG body-weight/day forced administration, high-fat feed, dissected four weeks after induction)	Occurrence confirmed (abdominal aortic aneurysm) ([2]; Example 1, number of rats of 8, vessel dilated to twice or more its original thickness, 1,145 MG/KG body-weight/day)	Survival rate ([2]; during the test period) [%]	Diameter of the aorta in the abdominal aortic aneurysm induction part [2]	Rupture rate of abdominal aortic aneurysm ([2]; Example 2) [%]	Frequency of occurrence of abdominal aortic aneurysm ([2]; Example 2, control group 30.4) [%]	Occurrence not confirmed (abdominal aortic aneurysm) [2, 3]	Occurrence confirmed (abdominal aortic aneurysm) [2, 4]	Rupture confirmed (abdominal aortic aneurysm) ([2]; Example 2)	Rupture not confirmed (abdominal aortic aneurysm) ([2]; Example 2)	Survival rate ([2]; until Day 26 after induction treatment, control declined on Day 17) [%]
CCCCCCCCCC(=O)OCC(COC(=O)CCCCCCCCC)OC(=O)CCCCCCCCC [Tricaprin, tricaprin]	1.89	no difference	12.5	0	0	1	7	1	100	about 2.2 MM	0	5.6	17	1	0	1	
CCCCCCCC(=O)OCC(COC(=O)CCCCCCC)OC(=O)CCCCCCC [Tricaprylin, tricaprylin]										about 3.5 MM	33.3	27.3	8	3	1	2	100

— patent publication US20260207537A1, “PHARMACEUTICAL COMPOSITION FOR PREVENTION AND TREATMENT OF AORTIC ANEURYSM, AND PROCESSED FOOD” (priority 2020, published 2026)
